Experimental data as given in patent US6492174B1, “Methods of initiating embryogenic cultures in plants” (Institute of Paper Science & Technology, priority 2000, dated 2002).
Like-named read-outs stand apart in the source and are kept apart here.

What was measured:
[1] = system: Loblolly pine megagametophytes
Procedure: As in Example 9, the explants in this experiment were megagametophytes, containing Stage 2-4 somatic embryos, excised from the open pollinated summer cones of four different genotypes of Loblolly pine. Megagametophytes were isolated as in Example 4 and put on initiation media #889 (Table 47). The experiment consisted of three replications per treatment, per cone collection. Replications consisted of ten explants in adjacent wells on a single well plate. Plates were wrapped in […] and incubated in the dark at 23-24° C.
Explants were cultured on solid media under atmospheres containing three levels of oxygen: normal air (21% oxygen), 30% oxygen and 50% oxygen. All oxygen treatments were applied at either normal atmospheric pressure or under an elevated pressure of 1.5 atmospheres.
After eight weeks, extrusion and initiation were scored, as described in Example 3.

loblolly pine = conditions: silver nitrate at about 29-59 μM; cited from earlier work
[2] = genotype 5-1036, 30% Oxygen + Pressure
[3] = genotype 5-1036, 50% Oxygen + Pressure
[4] = genotype 11-1057, 30% Oxygen + Pressure
[5] = genotype 11-1057, 50% Oxygen + Pressure
[6] = genotype 18-120, 30% Oxygen + Pressure
[7] = genotype 18-120, 50% Oxygen + Pressure
[8] = genotype 18-1212, 30% Oxygen + Pressure
[9] = genotype 18-1212, 50% Oxygen + Pressure

Compound: O=O [Oxygen]
- % Megagametophytes Extruding ([1]; Total, 30% Oxygen): 45.3%
- % Megagametophytes Initiating ([1]; Total, 30% Oxygen): 5.9%
- % Megagametophytes Extruding ([1]; Total, 30% Oxygen + Pressure): 53.2%
- % Megagametophytes Initiating ([1]; Total, 30% Oxygen + Pressure): 7.6%
- % Megagametophytes Extruding ([1]; Total, 50% Oxygen): 49.8%
- % Megagametophytes Initiating ([1]; Total, 50% Oxygen): 11.1%
- % Megagametophytes Extruding ([1]; Total, 50% Oxygen + Pressure): 56.9%
- % Megagametophytes Initiating ([1]; Total, 50% Oxygen + Pressure): 8.6%
- % Megagametophytes Extruding ([1]; genotype 5-1036, 30% Oxygen): 57.5 (3.8) %
- % Megagametophytes Initiating ([1]; genotype 5-1036, 30% Oxygen): 3.3 (3.3) %
- % Megagametophytes Extruding [1, 2]: 73.3 (8.8) %
- % Megagametophytes Initiating [1, 2]: 13.3 (3.3) %
- % Megagametophytes Extruding ([1]; genotype 5-1036, 50% Oxygen): 50.0 (10.0) %
- % Megagametophytes Initiating ([1]; genotype 5-1036, 50% Oxygen): 20.0 (5.8) %
- % Megagametophytes Extruding [1, 3]: 83.3 (3.3) %
- % Megagametophytes Initiating [1, 3]: 13.3 (3.3) %
- % Megagametophytes Extruding ([1]; genotype 11-1057, 30% Oxygen): 30.0 (15.3) %
- % Megagametophytes Initiating ([1]; genotype 11-1057, 30% Oxygen): 10.0 (0.0) %
- % Megagametophytes Extruding [1, 4]: 34.4 (16.1) %
- % Megagametophytes Initiating [1, 4]: 6.7 (67) %
- % Megagametophytes Extruding ([1]; genotype 11-1057, 50% Oxygen): 53.3 (3.3) %
- % Megagametophytes Initiating ([1]; genotype 11-1057, 50% Oxygen): 13.0 (3.3) %
- % Megagametophytes Extruding [1, 5]: 43.3 (3.3) %
- % Megagametophytes Initiating [1, 5]: 10.0 (5.8) %
- % Megagametophytes Extruding ([1]; genotype 18-120, 30% Oxygen): 33.3 (19.2) %
- % Megagametophytes Initiating ([1]; genotype 18-120, 30% Oxygen): 0.0 (0.0) %
- % Megagametophytes Extruding [1, 6]: 16.7 (8.8) %
- % Megagametophytes Initiating [1, 6]: 6.7 (6.7) %
- % Megagametophytes Extruding ([1]; genotype 18-120, 50% Oxygen): 40.0 (10.0) %
- % Megagametophytes Initiating ([1]; genotype 18-120, 50% Oxygen): 0.0 (0.0) %
- % Megagametophytes Extruding [1, 7]: 30.8 (3.6) %
- % Megagametophytes Initiating [1, 7]: 4.2 (4.2) %
- % Megagametophytes Extruding ([1]; genotype 18-1212, 30% Oxygen): 60.3 (8.0) %
- % Megagametophytes Initiating ([1]; genotype 18-1212, 30% Oxygen): 10.4 (5.8) %
- % Megagametophytes Extruding [1, 8]: 88.4 (6.5) %
- % Megagametophytes Initiating [1, 8]: 3.7 (3.7) %
- % Megagametophytes Extruding ([1]; genotype 18-1212, 50% Oxygen): 56.0 (3.6) %
- % Megagametophytes Initiating ([1]; genotype 18-1212, 50% Oxygen): 11.2 (0.7) %
- % Megagametophytes Extruding [1, 9]: 70.0 (15.3) %
- % Megagametophytes Initiating [1, 9]: 10.0 (5.8) %

Compound: O=[N+]([O-])[O-].[Ag+] [silver nitrate]
- embryogenic culture initiation (loblolly pine): improved embryogenic culture initiation
